Article PMC9037210, “Novel 3-(6-methylpyridin-2-yl)coumarin-based chalcones as selective inhibitors of cancer-related carbonic anhydrases IX and XII endowed with anti-proliferative activity” (Journal of Enzyme Inhibition and Medicinal Chemistry, 2022)

Tests used:
LOX IMVI = experiment: NCI single (10 µM) dose SRB screening, LOX IMVI; format: cell-based, human; conditions: 10 µM single dose, Melanoma
Protocol: (§1) Following NCI protocol, sixteen MPCs were screened for their potential in vitro anticancer effects against human 59 cancer cell panels including prostate, leukaemia melanoma, colon, breast, CNS, renal, NSCLC, and ovarian cancers by National Cancer Institute (USA)[30].
(§2) The antiproliferative activities of MPC 3 and MPCs 5a–o were first evaluated in a 10 µM dose assay, with SRB assay used to determine cell survival and proliferation. […] The results of the cell growth inhibitory activities for MPCs 5g and 5l towards the different treated tumour cell lines were presented as GI% and presented in Table 3.
(§3) The anticancer test was conducted using the methods of the Drug Evaluation Branch, National Cancer Institute, Bethesda, MD, using 59 human tumour cell lines derived from nine human tissues. The GI50, TGI, and LC50 dose-response parameters were calculated for each medication.

hCA II = biological target: T1, hCA II (Homo sapiens, UniProt P00918); experiment: stopped-flow CO2 hydrase assay, hCA II; format: biochemical; conditions: incubation time of 6 h, mean of three assays, read-out: KI CA II
T1 construct: made in house
Protocol: (§4) The newly synthesised MPCs (3 and 5a–o) were assessed for their CA inhibition activity employing the stopped-flow CO2 hydrase assay[29] for constitutional hCA (I/II) isoforms and cancer-linked hCA (IX/XII) isoforms.
(§5) The CA inhibition activity for the herein reported MPC derivatives was evaluated against the hCA isoforms I, II, IX, and XII using stopped-flow CO2 hydrase test[7]^,[33–36] (see the Supplementary Material).
(§6) Carbonic anhydrase inhibition assay
(§7) The carbonic anhydrase catalyzed CO2 hydration actions for all coumarin-based […]
(§8) Photophysics stopped-flow. The enzymes are recombinant proteins prepared in our lab. Phenol red (at a concentration of 0.2 mM) has been used as indicator, working at […]
(§9) mM Na2SO4 (for maintaining constant the ionic strength), following the initial rates of the CA-catalyzed CO2 hydration reaction for a period of 10-100 s. The CO2 concentrations ranged from 1.7 to 17 mM for the determination of the kinetic parameters and inhibition constants. For each inhibitor at least six traces of the initial 5-10% of the reaction have been used for determining the initial velocity. The uncatalyzed rates were determined in the same manner and subtracted from the total observed rates. Stock solutions of inhibitor (0.1 mM) were prepared in distilled-deionized water and dilutions up to 0.01 nM were done thereafter with the assay buffer. Inhibitor and enzyme solutions were preincubated together for 6 hrs. at room temperature prior to assay, in order to allow for the formation of the E-I complex. The inhibition constants were obtained by non-linear least-squares methods using PRISM 3 and the Cheng-Prusoff equation, and represent the mean from at least three different

MOLT-4 = experiment: NCI single (10 µM) dose SRB screening, MOLT-4; format: cell-based, human; conditions: 10 µM single dose, MOLT-4, Leukaemia
Protocol: as §1, §2, §3

KM 12 = experiment: NCI single (10 µM) dose SRB screening, KM 12; format: cell-based, human; conditions: 10 µM single dose, KM 12, Colon cancer
Protocol: as §1, §2, §3

MDA-MB-435 = experiment: NCI single (10 µM) dose SRB screening, MDA-MB-435; format: cell-based, human; conditions: 10 µM single dose, MDA-MB-435, Melanoma
Protocol: as §1, §2, §3

HCC-2998 = experiment: NCI single (10 µM) dose SRB screening, HCC-2998; format: cell-based, human; conditions: 10 µM single dose, HCC-2998, Colon cancer
Protocol: as §1, §2, §3

HCT-116 = experiment: NCI single (10 µM) dose SRB screening, HCT-116; format: cell-based, human; conditions: 10 µM single dose, HCT-116, Colon cancer
Protocol: as §1, §2, §3

CCRF-CEM = experiment: NCI single (10 µM) dose SRB screening, CCRF-CEM; format: cell-based, human; conditions: 10 µM single dose, Leukaemia
Protocol: as §1, §2, §3

hCA I = biological target: T2, hCA I (Homo sapiens, UniProt P00915); experiment: stopped-flow CO2 hydrase assay, hCA I; format: biochemical; conditions: stopped-flow, incubation time of 6 h, mean of three assays; read-out: KI CA I
T2 construct: made in house
Protocol: as §4, §5, §6, §7, §8, §9

HOP-92 = experiment: NCI single (10 µM) dose SRB screening, HOP-92; format: cell-based, human; conditions: 10 µM single dose, HOP-92, NSC lung cancer
Protocol: as §1, §2, §3

UACC-62 = experiment: NCI single (10 µM) dose SRB screening, UACC-62; format: cell-based, human; conditions: 10 µM single dose, UACC-62, Melanoma
Protocol: as §1, §2, §3

RPMI-8226 = experiment: NCI single (10 µM) dose SRB screening, RPMI-8226; format: cell-based, human; conditions: 10 µM single dose, RPMI-8226, Leukaemia
Protocol: as §1, §2, §3

OVCAR-8 = experiment: NCI single (10 µM) dose SRB screening, OVCAR-8; format: cell-based, human; conditions: 10 µM single dose, OVCAR-8, Ovarian cancer
Protocol: as §1, §2, §3

BT-549 = experiment: NCI single (10 µM) dose SRB screening, BT-549; format: cell-based, human; conditions: 10 µM single dose, BT-549, Breast cancer
Protocol: as §1, §2, §3

A498 = experiment: NCI single (10 µM) dose SRB screening, A498; format: cell-based, human; conditions: 10 µM single dose, A498, Renal cancer
Protocol: as §1, §2, §3

hCA IX = biological target: T3, hCA IX (Homo sapiens, UniProt Q16790); experiment: stopped-flow CO2 hydrase assay, hCA IX; format: biochemical; conditions: for Selectivity index (SI) (KI off-target CA/KI target CA) Towards hCA IX: ratio of KI for hCA I and II relative to hCA IX; for Ki: stopped-flow, incubation time of 6 h, mean of three assays, read-out: KI CA IX
T3 construct: made in house
Protocol: as §4, §5, §6, §7, §8, §9

NCI-H522 = experiment: NCI single (10 µM) dose SRB screening, NCI-H522; format: cell-based, human; conditions: 10 µM single dose, NCI-H522, NSC lung cancer
Protocol: as §1, §2, §3

IGROV1 = experiment: NCI single (10 µM) dose SRB screening, IGROV1; format: cell-based, human; conditions: 10 µM single dose, IGROV1, Ovarian cancer
Protocol: as §1, §2, §3

PC-3 = experiment: NCI single (10 µM) dose SRB screening, PC-3; format: cell-based, human; conditions: 10 µM single dose, PC-3, Prostate cancer
Protocol: as §1, §2, §3

SNB-75 = experiment: NCI single (10 µM) dose SRB screening, SNB-75; format: cell-based, human; conditions: 10 µM single dose, SNB-75, CNS cancer
Protocol: as §1, §2, §3

NCI/ADR-RES = experiment: NCI single (10 µM) dose SRB screening, NCI/ADR-RES; format: cell-based, human; conditions: 10 µM single dose, Ovarian cancer
Protocol: as §1, §2, §3

SF-268 = experiment: NCI single (10 µM) dose SRB screening, SF-268; format: cell-based, human; conditions: 10 µM single dose, SF-268, CNS cancer
Protocol: as §1, §2, §3

MDA-MB-468 = experiment: NCI single (10 µM) dose SRB screening, MDA-MB-468; format: cell-based, human; conditions: 10 µM single dose, MDA-MB-468, Breast cancer
Protocol: as §1, §2, §3

ACHN = experiment: NCI single (10 µM) dose SRB screening, ACHN; format: cell-based, human; conditions: 10 µM single dose, Renal cancer
Protocol: as §1, §2, §3

MDA-MB-231 = experiment: NCI single (10 µM) dose SRB screening, MDA-MB-231; format: cell-based, human; conditions: 10 µM single dose, MDA-MB-231, Breast cancer
Protocol: as §1, §2, §3

SN 12 C = experiment: NCI single (10 µM) dose SRB screening, SN 12 C; format: cell-based, human; conditions: 10 µM single dose, Renal cancer
Protocol: as §1, §2, §3

HT29 = experiment: NCI single (10 µM) dose SRB screening, HT29; format: cell-based, human; conditions: 10 µM single dose, HT29, Colon cancer
Protocol: as §1, §2, §3

HL-60(TB) = experiment: NCI single (10 µM) dose SRB screening, HL-60(TB); format: cell-based, human; conditions: 10 µM single dose, Leukaemia
Protocol: as §1, §2, §3

T2 sequence (P00915 whole entry): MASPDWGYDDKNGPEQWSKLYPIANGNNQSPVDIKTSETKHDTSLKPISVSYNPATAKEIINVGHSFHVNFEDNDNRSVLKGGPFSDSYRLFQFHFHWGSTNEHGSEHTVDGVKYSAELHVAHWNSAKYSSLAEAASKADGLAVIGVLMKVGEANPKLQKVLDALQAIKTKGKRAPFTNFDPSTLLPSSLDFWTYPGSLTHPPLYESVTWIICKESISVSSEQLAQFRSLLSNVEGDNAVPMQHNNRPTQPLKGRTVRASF

| SMILES | GI % (LOX IMVI) [%] | Ki (hCA II) [µM] | GI % (MOLT-4) [%] | GI % (KM 12) [%] | GI % (MDA-MB-435) [%] | GI % (HCC-2998) | GI % (HCT-116) | GI % (CCRF-CEM) [%] | Ki (hCA I) [µM] | GI % (HOP-92) | GI % (UACC-62) [%] | GI % (RPMI-8226) | GI % (OVCAR-8) | GI % (BT-549) | GI % (A498) | Selectivity index (SI) (KI off-target CA/KI target CA) Towards hCA IX (hCA IX) | Ki (hCA IX) [µM] | GI % (NCI-H522) [%] | GI % (IGROV1) | GI % (PC-3) | other results |
| --- | --- | --- | --- | --- | --- | --- | --- | --- | --- | --- | --- | --- | --- | --- | --- | --- | --- | --- | --- | --- | --- |
| Cc1nc(-c2cc3ccccc3oc2=O)ccc1C(=O)/C=C/c1ccc(N2CCOCC2)cc1 [Compound 5g, 3-(6-Methyl-5-[(2E)-3-[4-(morpholin-4-yl)phenyl]prop-2-enoyl]pyridin-2-yl)-2H-chromen-2-one] | 68 | > 100 | 33 | 31 | 121 | – (Only GI % more than 20% are displayed.) | – (Only GI % more than 20% are displayed.) | 27 | > 100 | – (Only GI % more than 20% are displayed.) | 47 | – (Only GI % more than 20% are displayed.) | – (Only GI % more than 20% are displayed.) | 23% | 24% | >8.33 | 12 | 38 | – (Only GI % more than 20% are displayed.) | – (Only GI % more than 20% are displayed.) | GI % (SNB-75): 41%; GI % (NCI/ADR-RES): 32%; GI % (SF-268): 24%; GI % (MDA-MB-468): 54%; GI % (ACHN): 29%; GI % (MDA-MB-231): 45%; GI % (SN 12 C): – (Only GI % more than 20% are displayed.); GI % (HT29): – (Only GI % more than 20% are displayed.); GI % (HL-60(TB)): 61% |
| Cc1nc(-c2cc3ccccc3oc2=O)ccc1C(=O)/C=C/c1ccccn1 [Compound 5l, 3-(6-Methyl-5-[(2E)-3-(pyridin-2-yl)prop-2-enoyl]pyridin-2-yl)-2H-chromen-2-one] | 184 | > 100 | 72 | 93 | 29 | 33% | 121% | 93 | > 100 | – (Only GI % more than 20% are displayed.) | 28 | 136% | 30% | – (Only GI % more than 20% are displayed.) | – (Only GI % more than 20% are displayed.) | >26.32 | 3.8 | 41 | 93% | 31% | GI % (SNB-75): 43%; GI % (NCI/ADR-RES): 22%; GI % (SF-268): 21%; GI % (MDA-MB-468): 39%; GI % (ACHN): 41%; GI % (MDA-MB-231): 87%; GI % (SN 12 C): 52%; GI % (HT29): 97%; GI % (HL-60(TB)): 67% |
